Entries after “also recorded” stand apart in the source; their conditions may differ.
Experiments:
[1] = system: KE1 bladder cancer cell line (ERCC2-mutated derivative of KU19-19, NER-deficient); test: In vitro drug sensitivity assay (CellTiter-Glo); type: cell-based; conditions: NER-deficient KE1, compared with isogenic KU19-19; 48 to 72 hours
Source text: (§1) Bladder cancer cell lines were purchased from ATCC. The KE1 bladder cancer cell line is a derivative of KU19-19 in which an ERCC2 T484 mutation has been introduced by CRISPR/Cas9 gene editing as previously described (6). The MDA-MB-468 breast cancer cell line and its ERCC4-complemented derivative have been previously described (35). Small interfering RNAs (siRNAs) targeting specific NER genes as well as a non-targeting siRNA (siNTC) were purchased from Integrated DNA Technologies Inc. (Coralville, IA, USA; see Table 9 for sequences). Cells were seeded in 6-well plates and grown to 50% confluency. A transfection mixture containing siRNA diluted to a final concentration of 30 nM in Opti-MEM media containing Lipofectamine 3000 (Life Technologies; Carlsbad, CA) was then added to cells. After 48 hours, cells were trypsinized and re-aliquoted to separate wells and transfected with 15 nM siRNA for 24 hours immediately prior to viability assays performed as described below. […]
(§2) Cells were seeded in either 96-well (5,000 cells/well) or 24-well (20,000 cells/well) plates. […] Plates were scanned using a luminescence microplate reader (BioTek). […]

[2] = system: bladder cancer cell lines; test: In vitro drug sensitivity assay / crystal violet staining, cell line panel; type: cell-based; conditions: most bladder cancer cell lines
Description: Cells were seeded in either 96-well (5,000 cells/well) or 24-well (20,000 cells/well) plates. The following day, irofulven and cisplatin stock solutions were serially diluted in media and added to cells. After 48 to 72 hours, media was removed and CellTiter-Glo® reagent (Promega; Madison, WI) was added. Plates were scanned using a luminescence microplate reader (BioTek). Survival at each drug concentration was plotted as a percentage of survival in drug-free media with error bars representing the standard deviation of at least three experiments.
For crystal violet imaging experiments, cells were seeded in 6-well plates (100,000-200,000 cells/well) with 15 nM siRNA transfection mixture (as detailed above). At 24 hours, fresh media containing irofulven or PBS was added and the cells were incubated for an additional 72 hours. Cells were then fixed in formalin solution for 30 minutes and stained with crystal violet prepared in equal volumes of methanol and water. Excess crystal violet was removed by washing with PBS, and plates were then dried and imaged.

KU19-19 cells = test: Irofulven sensitivity after siRNA depletion of NER genes; type: cell-based
Source text: as §1, §2

[3] = system: KE1 xenografts (NER-deficient); test: Xenograft study; type: in vivo, mice
Description: (§3) Six week old female athymic nude mice, NU/J (Stock No: 002019) were purchased from Jackson Laboratory (Bar Harbor, ME) and housed at the Dana-Farber Cancer Institute Animal Resources Facility. All animal experiments were performed in accordance with an IACUC-approved protocol. At 7-10 weeks of age, mice were anesthetized with isoflurane and subcutaneously injected on the left flank with 3 million KE1 or 1 million KU19-19 cells mixed 1:1 with Matrigel (BD Biosciences; Mississauga, ON) in PBS. Tumor size was measured with a digital caliper twice weekly and calculated using the formula: (L×W^2)×½. Drug treatments were administered when the average tumor volume reached a minimum of 100 mm^3. Irofulven was prepared in PBS to a stock concentration of 200 μg/ml and was delivered intraperitoneally (IP) twice weekly at doses of 250 μg/kg, 500 μg/kg or 1 mg/kg for a total of 5 injections or until the tumor reached a pre-specified protocol endpoint. Control mice were injected with PBS alone. At the end of the experiment, mice were sacrificed and tumors were excised for tumor weight measurements and imaging.
(§4) Six week old female athymic nude mice, NU/J (Stock No: 002019) were purchased from Jackson Laboratory (Bar Harbor, ME) and housed at the Dana-Farber Cancer Institute Animal Resources Facility. All animal experiments were performed in accordance with an IACUC-approved protocol. At 7-10 weeks of age, mice were anesthetized with isoflurane and subcutaneously injected on the left flank with 3 million KE1 or 1 million KU19-19 cells mixed 1:1 with Matrigel (BD Biosciences; Mississauga, ON) in PBS. Tumor size was measured with a digital caliper twice weekly and calculated using the formula:
(§5) [formula] Drug treatments were administered when the average tumor volume reached a minimum of 100 mm^3. Irofulven was prepared in PBS to a stock concentration of 200 μg/ml and was delivered intraperitoneally (IP) twice weekly at doses of 250 μg/kg, 500 μg/kg or 1 mg/kg for a total of 5 injections or until the tumor reached a pre-specified protocol endpoint. Control mice were injected with PBS alone. At the end of the experiment, mice were sacrificed and tumors were excised for tumor weight measurements and imaging.

[4] = system: KU19-19 xenografts (NER-proficient); test: Xenograft study; type: in vivo, mice; conditions: 1 mg/kg irofulven
Description: as §3, §4, §5

[5] = system: non-tumor cell lines with a TC-NER or common NER pathway gene defect; conditions: cited from earlier work
[6] = system: variety of tumor types, biomarker-unselected populations; conditions: single agent, Phase I/II clinical trials; cited from earlier work

CC1=C(CO)C2=C(C)C3(CC3)[C@@](C)(O)C(=O)C2=C1 [irofulven]
drug sensitivity (survival as percentage of drug-free media) [1]: significantly more sensitive; also recorded: highly sensitive; also recorded: increased sensitivity
irofulven sensitivity [2]: resistant; also recorded: minimal sensitivity
irofulven sensitivity after gene depletion (KU19-19 cells; siRNA depletion of GG-NER gene DDB2): minimal impact
irofulven sensitivity after gene depletion (KU19-19 cells; siRNA depletion of TC-NER gene ERCC6 or common NER gene ERCC3): significantly higher irofulven sensitivity; also recorded: sufficient to increase irofulven sensitivity
tumor dose response ([3]; 250 μg/kg, 500 μg/kg or 1 mg/kg IP twice weekly): strong irofulven dose response
tumor response (tumor volume) ([3]; 1 mg/kg IP twice weekly, total of five doses): near complete tumor regression
xenograft weights ([3]; irofulven-treated vs untreated mice): significantly lower
tumor response [4]: no response; also recorded: did not show response
toxicity to cells from patients with inactivating mutations in a TC-NER or common NER gene [5]: highly toxic
tolerability [6]: well-tolerated

— US12691143B2, “Method for treating cancer” (priority 2020, dated 2026)
